Data reported in article PMC10174618, “Monoterpenoid aryl hydrocarbon receptor allosteric antagonists protect against ultraviolet skin damage in female mice” (Nature Communications, 2023).

Key:
Assay in all cases: biochemical
Set-up in all cases: KINOMEscan scanMAX active site-directed competition binding assay, percent of control, 468 kinases
Settings in all cases: competition binding, percent of control
MARK2 = MARK2 (Homo sapiens, UniProt Q7KZI7)
Method in brief: (§1)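 Single-concentration screen (100 μM S-carvone) in a competition binding panel of 468 human kinases (KINOMEscan scanMAX); results given as percent of control, hit cutoff 35%.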

MST4 = target: T1, MST4 (Homo sapiens, UniProt Q9P289)
T1 construct: gene STK26
T1 sequence (Q9P289 whole entry): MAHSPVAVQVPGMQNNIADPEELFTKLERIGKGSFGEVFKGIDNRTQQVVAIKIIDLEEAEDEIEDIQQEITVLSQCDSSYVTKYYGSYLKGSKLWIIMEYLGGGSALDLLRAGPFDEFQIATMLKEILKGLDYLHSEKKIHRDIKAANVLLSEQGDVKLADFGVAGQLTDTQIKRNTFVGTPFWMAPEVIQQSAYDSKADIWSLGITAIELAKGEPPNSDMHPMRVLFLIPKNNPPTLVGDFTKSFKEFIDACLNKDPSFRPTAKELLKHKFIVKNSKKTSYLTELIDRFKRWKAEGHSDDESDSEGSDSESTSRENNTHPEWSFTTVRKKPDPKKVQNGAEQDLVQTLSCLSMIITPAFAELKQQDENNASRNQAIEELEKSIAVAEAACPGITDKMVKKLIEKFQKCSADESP
Method in brief: as §1

KIT(D816V) = KIT(D816V) (Homo sapiens, UniProt P10721, D816V)
Method in brief: as §1

LKB1 = target: T2, LKB1 (Homo sapiens, UniProt Q15831)
T2 construct: gene STK11
Method in brief: as §1

PFTK1 = target: T3, PFTK1 (Homo sapiens, UniProt O94921)
T3 construct: gene CDK14
Method in brief: as §1

TSSK1B = TSSK1B (Homo sapiens, UniProt Q9BXA7)
Method in brief: as §1

YSK1 = target: T4, YSK1 (Homo sapiens, UniProt O00506)
T4 construct: gene STK25
Method in brief: as §1

[1] = target: T5, RPS6KA4(Kin.Dom.2-C-terminal) (Homo sapiens, UniProt O75676)
T5 construct: Kin.Dom.2-C-terminal
Method in brief: as §1

DYRK1A = DYRK1A (Homo sapiens, UniProt Q13627)
Method in brief: as §1

RIPK2 = RIPK2 (Homo sapiens, UniProt O43353)
Method in brief: as §1

CIT = CIT (Homo sapiens, UniProt O14578)
Method in brief: as §1

NEK5 = NEK5 (Homo sapiens, UniProt Q6P3R8)
NEK5, sequence (Q6P3R8 whole entry): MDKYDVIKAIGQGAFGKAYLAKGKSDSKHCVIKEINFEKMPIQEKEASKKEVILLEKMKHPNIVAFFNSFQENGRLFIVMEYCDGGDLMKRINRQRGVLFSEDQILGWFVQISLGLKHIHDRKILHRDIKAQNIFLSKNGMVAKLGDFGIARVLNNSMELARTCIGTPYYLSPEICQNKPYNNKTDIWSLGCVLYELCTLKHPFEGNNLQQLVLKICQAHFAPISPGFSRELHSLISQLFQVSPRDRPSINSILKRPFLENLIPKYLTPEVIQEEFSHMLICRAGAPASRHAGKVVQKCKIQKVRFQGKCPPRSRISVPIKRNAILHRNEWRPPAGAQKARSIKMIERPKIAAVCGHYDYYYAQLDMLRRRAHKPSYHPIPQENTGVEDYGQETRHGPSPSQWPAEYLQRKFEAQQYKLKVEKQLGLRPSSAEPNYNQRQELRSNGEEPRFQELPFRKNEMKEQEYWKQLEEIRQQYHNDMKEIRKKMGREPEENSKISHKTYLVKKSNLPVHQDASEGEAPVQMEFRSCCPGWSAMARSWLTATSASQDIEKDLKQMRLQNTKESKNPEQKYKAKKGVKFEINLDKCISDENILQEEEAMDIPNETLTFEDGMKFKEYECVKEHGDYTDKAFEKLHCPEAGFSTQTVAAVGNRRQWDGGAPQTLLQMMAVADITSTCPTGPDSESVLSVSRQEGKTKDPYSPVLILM
Method in brief: as §1

[2] = target: T6, RSK2(Kin.Dom.1-N-terminal) (Homo sapiens, UniProt P51812)
T6 construct: gene RPS6KA3; Kin.Dom.1-N-terminal
T6 sequence (P51812 whole entry): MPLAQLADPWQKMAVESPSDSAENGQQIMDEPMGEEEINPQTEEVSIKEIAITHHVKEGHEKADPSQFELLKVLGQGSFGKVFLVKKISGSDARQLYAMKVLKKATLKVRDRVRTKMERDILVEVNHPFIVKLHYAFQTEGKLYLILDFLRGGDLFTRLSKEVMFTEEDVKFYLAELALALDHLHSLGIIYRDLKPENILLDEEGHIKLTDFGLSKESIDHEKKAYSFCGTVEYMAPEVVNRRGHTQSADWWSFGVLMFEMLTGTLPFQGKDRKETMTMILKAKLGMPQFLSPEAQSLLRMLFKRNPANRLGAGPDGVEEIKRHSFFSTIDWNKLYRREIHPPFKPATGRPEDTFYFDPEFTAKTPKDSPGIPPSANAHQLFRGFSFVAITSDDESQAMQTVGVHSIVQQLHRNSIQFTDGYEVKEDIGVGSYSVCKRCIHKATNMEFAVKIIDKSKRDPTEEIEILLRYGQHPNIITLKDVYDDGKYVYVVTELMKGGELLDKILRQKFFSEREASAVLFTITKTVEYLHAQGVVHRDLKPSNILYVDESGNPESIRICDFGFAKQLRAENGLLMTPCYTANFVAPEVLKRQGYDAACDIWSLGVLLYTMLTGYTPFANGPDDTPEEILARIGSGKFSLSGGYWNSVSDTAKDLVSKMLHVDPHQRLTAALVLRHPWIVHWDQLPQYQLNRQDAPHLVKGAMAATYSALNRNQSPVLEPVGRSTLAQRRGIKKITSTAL
Method in brief: as §1

ERN1 = ERN1 (Homo sapiens, UniProt O75460)
Method in brief: as §1

ROCK1 = ROCK1 (Homo sapiens, UniProt Q13464)
Method in brief: as §1

MAP3K15 = MAP3K15 (Homo sapiens, UniProt Q6ZN16)
MAP3K15, sequence (Q6ZN16 whole entry): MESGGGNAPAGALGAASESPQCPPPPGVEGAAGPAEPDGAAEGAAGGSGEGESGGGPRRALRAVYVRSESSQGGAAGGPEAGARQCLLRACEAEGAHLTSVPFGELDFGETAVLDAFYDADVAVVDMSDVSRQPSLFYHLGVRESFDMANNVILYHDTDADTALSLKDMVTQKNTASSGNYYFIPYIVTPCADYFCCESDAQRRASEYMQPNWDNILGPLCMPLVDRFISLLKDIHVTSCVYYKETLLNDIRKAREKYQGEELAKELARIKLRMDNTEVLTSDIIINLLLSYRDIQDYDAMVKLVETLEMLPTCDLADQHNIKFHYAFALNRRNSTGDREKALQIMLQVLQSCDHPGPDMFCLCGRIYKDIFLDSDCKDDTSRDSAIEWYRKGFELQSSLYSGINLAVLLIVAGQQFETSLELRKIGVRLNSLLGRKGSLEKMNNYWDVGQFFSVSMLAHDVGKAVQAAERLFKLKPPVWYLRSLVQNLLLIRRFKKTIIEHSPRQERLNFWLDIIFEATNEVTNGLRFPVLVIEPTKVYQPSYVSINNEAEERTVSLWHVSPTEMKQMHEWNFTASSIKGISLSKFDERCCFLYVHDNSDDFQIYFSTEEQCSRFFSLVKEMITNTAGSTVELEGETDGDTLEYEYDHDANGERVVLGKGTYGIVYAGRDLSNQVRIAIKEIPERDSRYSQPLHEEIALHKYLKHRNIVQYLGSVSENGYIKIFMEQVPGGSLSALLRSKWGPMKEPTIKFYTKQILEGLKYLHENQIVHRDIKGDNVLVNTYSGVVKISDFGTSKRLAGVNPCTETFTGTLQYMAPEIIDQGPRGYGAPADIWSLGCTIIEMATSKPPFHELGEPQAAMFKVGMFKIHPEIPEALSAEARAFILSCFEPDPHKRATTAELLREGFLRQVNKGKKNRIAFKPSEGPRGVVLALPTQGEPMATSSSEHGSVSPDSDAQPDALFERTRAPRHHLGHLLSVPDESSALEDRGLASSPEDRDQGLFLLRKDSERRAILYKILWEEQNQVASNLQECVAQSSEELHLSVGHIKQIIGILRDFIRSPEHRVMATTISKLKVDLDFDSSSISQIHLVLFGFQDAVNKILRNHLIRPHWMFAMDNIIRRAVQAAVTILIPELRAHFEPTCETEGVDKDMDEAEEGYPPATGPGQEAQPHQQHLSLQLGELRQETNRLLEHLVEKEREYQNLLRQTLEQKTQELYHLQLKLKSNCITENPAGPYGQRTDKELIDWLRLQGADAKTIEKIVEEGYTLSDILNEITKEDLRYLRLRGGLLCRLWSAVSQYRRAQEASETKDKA
Method in brief: as §1

MAP4K5 = MAP4K5 (Homo sapiens, UniProt Q9Y4K4)
MAP4K5, sequence (Q9Y4K4 whole entry): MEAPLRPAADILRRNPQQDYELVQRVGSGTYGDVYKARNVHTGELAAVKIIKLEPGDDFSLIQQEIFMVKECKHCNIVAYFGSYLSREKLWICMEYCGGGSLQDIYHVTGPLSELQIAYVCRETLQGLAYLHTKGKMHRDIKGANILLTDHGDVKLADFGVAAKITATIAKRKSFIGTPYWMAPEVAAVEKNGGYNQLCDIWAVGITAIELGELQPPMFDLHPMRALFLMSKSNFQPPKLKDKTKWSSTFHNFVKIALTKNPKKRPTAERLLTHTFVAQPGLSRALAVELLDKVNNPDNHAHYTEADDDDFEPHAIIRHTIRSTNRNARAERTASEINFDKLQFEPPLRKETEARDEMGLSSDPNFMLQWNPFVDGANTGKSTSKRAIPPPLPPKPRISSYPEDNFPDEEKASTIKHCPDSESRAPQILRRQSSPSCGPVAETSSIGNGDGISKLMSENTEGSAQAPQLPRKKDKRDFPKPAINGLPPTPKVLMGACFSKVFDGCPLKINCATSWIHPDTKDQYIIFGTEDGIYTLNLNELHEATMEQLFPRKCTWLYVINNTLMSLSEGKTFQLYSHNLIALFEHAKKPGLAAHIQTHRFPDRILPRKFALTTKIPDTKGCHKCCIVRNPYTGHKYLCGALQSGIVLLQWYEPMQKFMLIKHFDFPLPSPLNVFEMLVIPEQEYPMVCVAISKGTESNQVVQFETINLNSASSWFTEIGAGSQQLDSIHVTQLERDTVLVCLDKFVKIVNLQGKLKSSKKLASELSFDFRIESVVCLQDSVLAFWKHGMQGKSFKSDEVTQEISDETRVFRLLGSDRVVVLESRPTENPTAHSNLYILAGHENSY
Method in brief: as §1

MTOR = MTOR (Homo sapiens, UniProt P42345)
Method in brief: as §1

[3] = target: T7, RSK1(Kin.Dom.1-N-terminal) (Homo sapiens, UniProt Q15418)
T7 construct: gene RPS6KA1; Kin.Dom.1-N-terminal
T7 sequence (Q15418 whole entry): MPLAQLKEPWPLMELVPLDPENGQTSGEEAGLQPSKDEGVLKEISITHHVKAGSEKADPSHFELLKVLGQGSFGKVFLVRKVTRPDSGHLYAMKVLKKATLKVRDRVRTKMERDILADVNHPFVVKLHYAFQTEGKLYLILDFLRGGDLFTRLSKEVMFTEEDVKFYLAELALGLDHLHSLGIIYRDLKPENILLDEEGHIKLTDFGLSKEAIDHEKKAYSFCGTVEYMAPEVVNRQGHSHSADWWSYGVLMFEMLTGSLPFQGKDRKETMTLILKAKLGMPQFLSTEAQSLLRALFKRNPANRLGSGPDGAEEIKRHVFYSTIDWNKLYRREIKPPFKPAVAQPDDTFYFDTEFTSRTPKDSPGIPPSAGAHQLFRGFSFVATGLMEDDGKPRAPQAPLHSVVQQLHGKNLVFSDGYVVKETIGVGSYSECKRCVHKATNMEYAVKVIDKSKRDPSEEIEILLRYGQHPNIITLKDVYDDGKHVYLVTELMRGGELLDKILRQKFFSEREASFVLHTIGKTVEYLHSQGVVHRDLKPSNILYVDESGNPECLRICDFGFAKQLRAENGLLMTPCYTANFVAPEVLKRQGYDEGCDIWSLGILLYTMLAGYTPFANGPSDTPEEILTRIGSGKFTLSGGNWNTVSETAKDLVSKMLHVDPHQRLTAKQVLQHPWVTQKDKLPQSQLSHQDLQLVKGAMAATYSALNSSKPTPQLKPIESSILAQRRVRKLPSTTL
Method in brief: as §1

PRKD3 = PRKD3 (Homo sapiens, UniProt O94806)
Method in brief: as §1

PRKG2 = PRKG2 (Homo sapiens, UniProt Q13237)
Method in brief: as §1

With C=C(C)[C@H]1CC=C(C)C(=O)C1 [S-carvone] the remaining binding at 100 µM (MARK2) was 100%, the remaining binding at 100 µM (MST4) was 100% and the remaining binding at 100 µM (KIT(D816V)) was 78%. For the same compound, the remaining binding at 100 µM (LKB1) was 50%, the remaining binding at 100 µM (PFTK1) was 93% and the remaining binding at 100 µM (TSSK1B) was 95%. The remaining binding at 100 µM (YSK1) was 73%, the remaining binding at 100 µM [1] was 75% and the remaining binding at 100 µM (DYRK1A) was 91%. For the same compound, the remaining binding at 100 µM (RIPK2) was 97%, the remaining binding at 100 µM (CIT) was 81% and the remaining binding at 100 µM (NEK5) was 93%. The remaining binding at 100 µM [2] was 89%, the remaining binding at 100 µM (ERN1) was 90% and the remaining binding at 100 µM (ROCK1) was 100%. For the same compound, the remaining binding at 100 µM (MAP3K15) was 93%, the remaining binding at 100 µM (MAP4K5) was 85% and the remaining binding at 100 µM (MTOR) was 78%. The remaining binding at 100 µM [3] was 91%, the remaining binding at 100 µM (PRKD3) was 92% and the remaining binding at 100 µM (PRKG2) was 76%.
